Measured values: patent publication US4137311A, “Synergistic compositions and method of use” (William H. Rorer, Inc., priority 1977, dated 1979)
Structures can show the parent of a compound that is named as a salt.

Tests used:
[1] = tested on: Croton-Oil Induced Inflammation To The Mouse's Ear; experiment: Immediate co-administration: croton-oil induced inflammation of the mouse's ear (Table I), edema weight and percent inhibition; conditions: immediate application; for Ear edema weight (± S.D.): control 16.9±3.0
Experimental: Mathematical determination of the synergistic effects of combinations of bis-(2-pyridyl-1-oxide) disulfide magnesium sulfate and hydrocortisone was done using a modification of the method described by Van Arman, C.
(§1) Hydrocortisone and bis-(2-pyridyl-1-oxide) disulfide magnesium sulfate were suspended or dissolved in ethanol U.S.P. (200 proof) at concentrations of 20, 40 and 80 mg/ml of bis-(2-pyridyl-1-oxide) disulfide magnesium sulfate and 0.01, 1 and 10 mg of hydrocortisone.
(§2) Four hours after application of the irritant vehicle (three hours after drug application) both ears were amputated and one circular section was exercised from each ear using a No. 4 cork borer (7 mm i.d.). The ear sections were then weighed. The increase in weight due to edema formation caused by the croton oil in the treated ear and reduction of the edema caused by treatment with bis-(2-pyridyl-1-oxide) disulfide magnesium sulfate hydrocortisone or combinations thereof was determined by subtracting the weight of the untreated right ear section from that of the treated left ear section.
Ethanol was used as the vehicle; pyridine contained in the usual irritant vehicle as described previously produces an alkaline reaction. Controls were treated with only the croton oil vehicle.
A fixed dose of 4 mg/ear of bis-(2-pyridyl-1-oxide) disulfide magnesium sulfate was co-applied with 0.01, 0.1 and 1 mg/ear of hydrocortisone.

[2] = tested on: Croton-Oil Induced Inflammation To The Mouse's Ear; experiment: Delayed co-application to existing croton-oil induced inflammation of the mouse's ear (Table II), edema weight and percent inhibition; conditions: for Ear edema weight (± S.D.): control 14.9±3.8
Experimental: as §1
Groups of mice treated with only the croton oil irritant solution served as controls. The right ear of mice in any group was not treated.
as §2

[3] = Solubility in ethanol U.S.P. (200 proof)
[4] = hydrocortisone alone 0.1 mg/ear
[5] = hydrocortisone alone 1.0 mg/ear
[6] = delayed application, hydrocortisone (free alcohol) alone 0.01 mg/ear
[7] = delayed application, hydrocortisone (free alcohol) alone 0.1 mg/ear
[8] = delayed application, hydrocortisone (free alcohol) alone 1.0 mg/ear
[9] = adduct alone, topical dose 4 mg/ear
[10] = delayed application, adduct alone 4 mg/ear
[11] = delayed application, adduct alone 8 mg/ear

## C[C@]12CCC(=O)C=C1CC[C@@H]1[C@@H]2[C@@H](O)C[C@@]2(C)[C@H]1CC[C@]2(O)C(=O)CO [Hydrocortisone]
[1]; hydrocortisone alone 0.01 mg/ear (Table I)
  Percent inhibition of ear edema: 23.1%
[1]; hydrocortisone alone 0.01 mg/ear
  Ear edema weight (± S.D.): 13.0 ± 3.8 mg
[1]; [4]
  Percent inhibition of ear edema: 53.3%
  Ear edema weight (± S.D.): 7.9 ± 2.3 mg
[1]; [5]
  Percent inhibition of ear edema: 67.5%
  Ear edema weight (± S.D.): 5.5 ± 2.6 mg
[1]; hydrocortisone alone, dose printed in text 0.01 mg/ear
  inhibition: 53.3%
[2]; [6]
  Percent inhibition of ear edema: 17.5%
  Ear edema weight (± S.D.): 12.3 ± 3.3 mg
[2]; [7]
  Percent inhibition of ear edema: 40.3%
  Ear edema weight (± S.D.): 8.9 ± 2.3 mg
[2]; [8]
  Percent inhibition of ear edema: 58.4%
  Ear edema weight (± S.D.): 6.2 ± 2.4 mg
[2]; delayed application, hydrocortisone alone
  dose of hydrocortisone by itself necessary to achieve a similar response (46.3%): 0.25 mg/ear
[2]; hydrocortisone by itself 0.00125 mg/ear
  expected anti-inflammatory response by extrapolation of dose-response line: little, if any, significant anti-inflammatory response

## [O-][n+]1ccccc1SSc1cccc[n+]1[O-] [bis-(2-pyridyl-1-oxide) disulfide magnesium sulfate]
[3]
  solubility in the alcohol vehicle: formed a fine suspension
[1]; [9]
  Percent inhibition of ear edema: 24.9%
  Ear edema weight (± S.D.): 12.7 ± 3.0 mg
[2]; adduct by itself 0.87 mg/ear
  expected anti-inflammatory response by extrapolation of dose-response line: little, if any, significant anti-inflammatory response
[2]; delayed application, 1 hour after croton oil, adduct alone 2 mg/ear
  Ear edema weight (± S.D.): 12.7 ± 2.4 mg
[2]; delayed application, adduct alone
  dose of adduct by itself necessary to achieve a similar response (46.3%): 17.7 mg/ear
[2]; delayed application, adduct alone 2 mg/ear
  Percent inhibition of ear edema: 14.8%
[2]; [10]
  Percent inhibition of ear edema: 23.5%
  Ear edema weight (± S.D.): 11.4 ± 2.8 mg
[2]; [11]
  Percent inhibition of ear edema: 35.6%
  Ear edema weight (± S.D.): 9.6 ± 2.2 mg
